Calls of active or inactive are those of the source. No cut-off for these calls is given here.
Experiments:
[1] = Cytotoxicity against human MHCC97L cells assessed as growth inhibition after 24 hrs by MTT assay; assay type: functional, cell-based
PLC-PRF-5 [2] = experiment: Cytotoxicity against human PLC/PRF/5 cells assessed as growth inhibition after 24 hrs by MTT assay; assay type: functional, cell-based; conditions: PLC-PRF-5, 24 h
[3] = Potency index, ratio of sorafenib IC50 to test compound IC50 for human MHCC97L cells; assay type: functional
PLC-PRF-5 [4] = experiment: Potency index, ratio of sorafenib IC50 to test compound IC50 for human PLC/PRF/5 cells; assay type: functional
[5] = Potency index, ratio of tetrandrine IC50 to test compound IC50 for human MHCC97L cells; assay type: functional
PLC-PRF-5 [6] = experiment: Potency index, ratio of tetrandrine IC50 to test compound IC50 for human PLC/PRF/5 cells; assay type: functional
PLC-PRF-5 [7] = experiment: Cell cycle arrest in human PLC/PRF/5 cells assessed as accumulation at G0/G1 phase at 1.25 to 2.5 uM after 24 hrs by propidium iodide staining-based flow cytometric method (reference value: 69.17%); assay type: functional
PLC-PRF-5 [8] = experiment: Cell cycle arrest in human PLC/PRF/5 cells assessed as accumulation at S phase at 1.25 to 2.5 uM after 24 hrs by propidium iodide staining-based flow cytometric method (reference value: 20.73%); assay type: functional
PLC-PRF-5 [9] = experiment: Cell cycle arrest in human PLC/PRF/5 cells assessed as accumulation at G2/M phase at 1.25 to 2.5 uM after 24 hrs by propidium iodide staining-based flow cytometric method (reference value: 18.18%); assay type: functional
[10] = Cell cycle arrest in human MHCC97L cells assessed as accumulation at G0/G1 phase at 1.25 to 2.5 uM after 24 hrs by propidium iodide staining-based flow cytometric method (reference value: 65.24%); assay type: functional
[11] = Cell cycle arrest in human MHCC97L cells assessed as accumulation at S phase at 1.25 to 2.5 uM after 24 hrs by propidium iodide staining-based flow cytometric method (reference value: 18.41%); assay type: functional
[12] = Cell cycle arrest in human MHCC97L cells assessed as accumulation at G2/M phase at 1.25 to 2.5 uM after 24 hrs by propidium iodide staining-based flow cytometric method (reference value: 20.60%); assay type: functional
PLC-PRF-5 [13] = experiment: Induction of apoptosis in human PLC/PRF/5 cells assessed as early apoptotic cells at 1.25 to 2.5 uM after 24 hrs by annexin V/7-AAD staining-based flow cytometric method (reference value: 0.467%); assay type: functional
PLC-PRF-5 [14] = experiment: Induction of apoptosis in human PLC/PRF/5 cells assessed as late apoptotic cells at 1.25 to 2.5 uM after 24 hrs by annexin V/7-AAD staining-based flow cytometric method (reference value: 2.66%); assay type: functional
PLC-PRF-5 [15] = experiment: Induction of apoptosis in human PLC/PRF/5 cells assessed as necrotic cells at 1.25 to 2.5 uM after 24 hrs by annexin V/7-AAD staining-based flow cytometric method (reference value: 1.87%); assay type: functional
PLC-PRF-5 [16] = experiment: Induction of apoptosis in human PLC/PRF/5 cells assessed as viable cells at 1.25 to 2.5 uM after 24 hrs by annexin V/7-AAD staining-based flow cytometric method (reference value: 95%); assay type: functional
[17] = Induction of apoptosis in human MHCC97L cells assessed as early apoptotic cells at 1.25 to 2.5 uM after 24 hrs by annexin V/7-AAD staining-based flow cytometric method (reference value: 0.601%); assay type: functional
[18] = Induction of apoptosis in human MHCC97L cells assessed as late apoptotic cells at 1.25 to 2.5 uM after 24 hrs by annexin V/7-AAD staining-based flow cytometric method (reference value: 3.66%); assay type: functional
[19] = Induction of apoptosis in human MHCC97L cells assessed as necrotic cells at 1.25 to 2.5 uM after 24 hrs by annexin V/7-AAD staining-based flow cytometric method (reference value: 3.44%); assay type: functional
[20] = Induction of apoptosis in human MHCC97L cells assessed as viable cells at 1.25 to 2.5 uM after 24 hrs by annexin V/7-AAD staining-based flow cytometric method (reference value: 93.4%); assay type: functional
PLC-PRF-5 [21] = experiment: Cytotoxicity against human PLC/PRF/5 cells assessed as decrease in cell viability at 1.25 to 2.5 uM after 24 hrs in presence of caspase inhibitor Z-vad-fmk by MTT assay; assay type: functional, cell-based
MHCC97L [22] = experiment: Cytotoxicity against human MHCC97L cells assessed as decrease in cell viability at 1.25 to 2.5 uM after 24 hrs in presence of caspase inhibitor Z-vad-fmk by MTT assay; assay type: functional, cell-based
PLC-PRF-5 [23] = experiment: Cytotoxicity against human PLC/PRF/5 cells assessed as decrease in cell viability at 1.25 to 2.5 uM after 24 hrs in presence of autophagy inhibitor bafilomycin A1 by MTT assay; assay type: functional, cell-based
MHCC97L [24] = experiment: Cytotoxicity against human MHCC97L cells assessed as decrease in cell viability at 1.25 to 2.5 uM after 24 hrs in presence of autophagy inhibitor bafilomycin A1 by MTT assay; assay type: functional, cell-based
PLC-PRF-5 [25] = experiment: Cytotoxicity against human PLC/PRF/5 cells assessed as decrease in cell viability at 1.25 to 2.5 uM after 24 hrs in presence of necrosis inhibitor necrostatin-1 by MTT assay; assay type: functional, cell-based
MHCC97L [26] = experiment: Cytotoxicity against human MHCC97L cells assessed as decrease in cell viability at 1.25 to 2.5 uM after 24 hrs in presence of necrosis inhibitor necrostatin-1 by MTT assay; assay type: functional, cell-based
PLC-PRF-5 [27] = experiment: Induction of endoplasmic reticulum stress in human PLC/PRF/5 cells at 1.25 to 2.5 uM after 24 hrs by ER tracker red staining-based fluorescence microscopic method; assay type: functional, cell-based
MHCC97L [28] = experiment: Induction of endoplasmic reticulum stress in human MHCC97L cells at 1.25 to 2.5 uM after 24 hrs by ER tracker red staining-based fluorescence microscopic method; assay type: functional, cell-based
PLC-PRF-5 [29] = experiment: Induction of endoplasmic reticulum stress in human PLC/PRF/5 cells assessed as upregulation of GRP78 gene expression at 1.25 to 2.5 uM after 24 hrs by qRT-PCR method; assay type: functional, cell-based
PLC-PRF-5 [30] = experiment: Induction of endoplasmic reticulum stress in human PLC/PRF/5 cells assessed as upregulation of ATF4 gene expression at 1.25 to 2.5 uM after 24 hrs by qRT-PCR method; assay type: functional, cell-based
MHCC97L [31] = experiment: Induction of endoplasmic reticulum stress in human MHCC97L cells assessed as upregulation of GRP78 gene expression at 1.25 to 2.5 uM after 24 hrs by qRT-PCR method; assay type: functional, cell-based
MHCC97L [32] = experiment: Induction of endoplasmic reticulum stress in human MHCC97L cells assessed as upregulation of ATF4 gene expression at 1.25 to 2.5 uM after 24 hrs by qRT-PCR method; assay type: functional, cell-based
PLC-PRF-5 [33] = experiment: Cytotoxicity against human PLC/PRF/5 cells assessed as decrease in cell viability at 1.25 to 2.5 uM after 24 hrs in presence of endoplasmic reticulum stress reliever TUDCA by MTT assay; assay type: functional, cell-based
MHCC97L [34] = experiment: Cytotoxicity against human MHCC97L cells assessed as decrease in cell viability at 1.25 to 2.5 uM after 24 hrs in presence of endoplasmic reticulum stress reliever TUDCA by MTT assay; assay type: functional, cell-based
[35] = molecular target: T1, c-Jun N-terminal kinase, JNK (Homo sapiens) (UniProt P45983+P53779+P45984); experiment: Induction of JNK phosphorylation in human PLC/PRF/5 cells at 1.25 to 2.5 uM after 24 hrs by immunoblot method; assay type: cell-based
[36] = molecular target: T1, c-Jun N-terminal kinase, JNK (Homo sapiens); experiment: Induction of JNK phosphorylation in human MHCC97L cells at 1.25 to 2.5 uM after 24 hrs by immunoblot method; assay type: cell-based
[37] = molecular target: T1, c-Jun N-terminal kinase, JNK (Homo sapiens); experiment: Induction of JNK activation in human PLC/PRF/5 cells assessed as increase in caspase 3 cleavage at 1.25 to 2.5 uM after 24 hrs by immunoblot method; assay type: cell-based
[38] = molecular target: T1, c-Jun N-terminal kinase, JNK (Homo sapiens); experiment: Induction of JNK activation in human MHCC97L cells assessed as increase in caspase 3 cleavage at 1.25 to 2.5 uM after 24 hrs by immunoblot method; assay type: cell-based
PLC-PRF-5 [39] = experiment: Cytotoxicity against human PLC/PRF/5 cells assessed as decrease in cell viability at 1.25 to 2.5 uM after 24 hrs in presence of JNK inhibitor SP600125 by MTT assay; assay type: functional, cell-based
MHCC97L [40] = experiment: Cytotoxicity against human MHCC97L cells assessed as decrease in cell viability at 1.25 to 2.5 uM after 24 hrs in presence of JNK inhibitor SP600125 by MTT assay; assay type: functional, cell-based

Q: Which IC50 [1] does the source give for `COc1cc(NC(=O)c2ccco2)c2cc1Oc1ccc(cc1)C[C@H]1c3cc(c(OC)cc3CCN1C)Oc1c(OC)c(OC)cc3c1[C@H](C2)N(C)CC3` here?
A: Its IC50 is 890 nM.

Q: And the IC50 (PLC-PRF-5 [2])?
A: The IC50 was 1230 nM.

Q: What about the “Ratio IC50” value [3] of the same compound?
A: Its value is 30.3.

Q: And the “Ratio IC50” value (PLC-PRF-5 [4])?
A: The value was 30.3.

Q: And the “Ratio IC50” value [5]?
A: Its value is 15.8.

Q: What about the “Ratio IC50” value (PLC-PRF-5 [6]) of the same compound?
A: Its value is 15.8.

Q: And the Activity (PLC-PRF-5 [7])?
A: The Activity was 67.11%.

Q: What about the Activity (PLC-PRF-5 [8]) of the same compound?
A: The Activity was 21.55%.

Q: And the Activity (PLC-PRF-5 [9])?
A: The Activity was 17.78%.

Q: What about the Activity [10] of the same compound?
A: The Activity was 68.52%.

Q: And the Activity [11]?
A: Its Activity is 21.59%.

Q: And the Activity [12]?
A: The Activity was 18.29%.

Q: What about the Activity (PLC-PRF-5 [13]) of the same compound?
A: The Activity was 16.9%.

Q: What about the Activity (PLC-PRF-5 [14]) of the same compound?
A: Its Activity is 42.8%.

Q: And the Activity (PLC-PRF-5 [15])?
A: Its Activity is 3.9%.

Q: And the Activity (PLC-PRF-5 [16])?
A: Its Activity is 36.4%.

Q: And the Activity [17]?
A: Its Activity is 9.76%.

Q: What about the Activity [18] of the same compound?
A: The Activity was 39.6%.

Q: What about the Activity [19] of the same compound?
A: The Activity was 4.18%.

Q: What about the Activity [20] of the same compound?
A: Its Activity is 46.4%.

Q: What about the Activity (PLC-PRF-5 [21]) of the same compound?
A: The Activity was “inactive”.

Q: And the Activity (MHCC97L [22])?
A: Its Activity is “inactive”.

Q: And the Activity (PLC-PRF-5 [23])?
A: Its Activity is “Active”.

Q: And the Activity (MHCC97L [24])?
A: Its Activity is “Active”.

Q: And the Activity (PLC-PRF-5 [25])?
A: Its Activity is “Active”.

Q: What about the Activity (MHCC97L [26]) of the same compound?
A: Its Activity is “Active”.

Q: And the Activity (PLC-PRF-5 [27])?
A: Its Activity is “Active”.

Q: And the Activity (MHCC97L [28])?
A: The Activity was “Active”.

Q: What about the Activity (PLC-PRF-5 [29]) of the same compound?
A: Its Activity is “Active”.

Q: And the Activity (PLC-PRF-5 [30])?
A: Its Activity is “Active”.

Q: And the Activity (MHCC97L [31])?
A: The Activity was “Active”.

Q: What about the Activity (MHCC97L [32]) of the same compound?
A: The Activity was “Active”.

Q: What about the Activity (PLC-PRF-5 [33]) of the same compound?
A: Its Activity is “inactive”.

Q: And the Activity (MHCC97L [34])?
A: The Activity was “inactive”.

Q: And the Activity [35]?
A: The Activity was “Active”.

Q: What about the Activity [36] of the same compound?
A: Its Activity is “Active”.

Q: And the Activity [37]?
A: The Activity was “Active”.

Q: What about the Activity [38] of the same compound?
A: Its Activity is “Active”.

Q: What about the Activity (PLC-PRF-5 [39]) of the same compound?
A: Its Activity is “inactive”.

Q: What about the Activity (MHCC97L [40]) of the same compound?
A: Its Activity is “inactive”.
